Test results reported in ChEMBL document CHEMBL2202990, “(R)- and (S)-4-Amino-3-(trimethylsilyl)methylbutanoic acids ameliorate neuropathic pain without central nervous system-related side effects” (Bioorg Med Chem Lett, 2012).
Calls of active or inactive are those of the source.

Assays:
Rattus norvegicus [1] = experiment: Toxicity against rat assessed as somnolence at 30 mg/kg; type: organism-based; parameters: dose 30 mg/kg; details: in vivo
Mus musculus [2] = experiment: Toxicity against mouse assessed as protection against pentetrazole-induced death at 45 mg/kg; type: organism-based; parameters: dose 45 mg/kg; details: in vivo
Mus musculus [3] = experiment: Toxicity against mouse assessed as protection against maximal-electroshock-induced tonic seizure at 45 mg/kg; type: organism-based; parameters: dose 45 mg/kg; details: in vivo
Mus musculus [4] = experiment: Toxicity against mouse assessed as protection against maximal-electroshock-induced tonic seizure at 15 mg/kg; type: organism-based; parameters: dose 15 mg/kg; details: in vivo
Rattus norvegicus [5] = experiment: Toxicity against CD rat SNL pain model assessed as hypalgesic activity on the contralateral side of paw at 20 mg/kg, po at 90 mins relative to control; type: organism-based; parameters: dose 20 mg/kg, route oral; details: in vivo, 1.5 h
Rattus norvegicus [6] = experiment: Antiallodynic activity in CD rat SNL pain model assessed as increase in paw withdrawal threshold at 20 mg/kg, po measured at 90 mins; type: functional, organism-based; parameters: dose 20 mg/kg
Rattus norvegicus [7] = experiment: Antiallodynic activity in CD rat SNL pain model assessed as increase in paw withdrawal threshold at 20 mg/kg, po measured from 30 to 180 mins; type: functional, organism-based; parameters: dose 20 mg/kg
Mus musculus [8] = experiment: Toxicity against mouse assessed as protection against pentetrazole-induced death at 5 mg/kg; type: organism-based; parameters: dose 5 mg/kg; details: in vivo
Mus musculus [9] = experiment: Toxicity against mouse assessed as protection against pentetrazole-induced death at 15 mg/kg; type: organism-based; parameters: dose 15 mg/kg; details: in vivo
Mus musculus [10] = experiment: Toxicity against mouse assessed as protection against maximal-electroshock-induced tonic seizure at 5 mg/kg; type: organism-based; parameters: dose 5 mg/kg; details: in vivo
Rattus norvegicus [11] = experiment: Toxicity against CD rat SNL pain model assessed as hypalgesic activity on the contralateral side of paw at 40 mg/kg, po at 90 mins relative to control; type: organism-based; parameters: dose 40 mg/kg, route oral; details: in vivo, 1.5 h
Rattus norvegicus [12] = experiment: Antiallodynic activity in CD rat SNL pain model assessed as increase in paw withdrawal threshold at 40 mg/kg, po measured from 30 to 180 mins; type: functional, organism-based; parameters: dose 40 mg/kg
Rattus norvegicus [13] = experiment: Antiallodynic activity in CD rat SNL pain model assessed as increase in paw withdrawal threshold at 20 mg/kg, po measured after 90 mins; type: functional, organism-based; parameters: dose 20 mg/kg
Rattus norvegicus [14] = experiment: Antiallodynic activity in CD rat SNL pain model assessed as increase in paw withdrawal threshold at 20 mg/kg, po measured from 30 to 60 mins; type: functional, organism-based; parameters: dose 20 mg/kg
Rattus norvegicus [15] = experiment: Antiallodynic activity in CD rat SNL pain model assessed as increase in paw withdrawal threshold at 60 mg/kg, po measured up to 180 mins; type: functional, organism-based; parameters: dose 60 mg/kg

| Structure (SMILES) | Activity (Rattus norvegicus [1]) | Activity (Mus musculus [2]) | Activity (Mus musculus [3]) | Activity (Mus musculus [4]) | Activity (Rattus norvegicus [5]) | Activity (Rattus norvegicus [6]) | Activity (Rattus norvegicus [7]) | Activity (Mus musculus [8]) | Activity (Mus musculus [9]) | Activity (Mus musculus [10]) | Activity (Rattus norvegicus [11]) | Activity (Rattus norvegicus [12]) | Activity (Rattus norvegicus [13]) | Activity (Rattus norvegicus [14]) | Activity (Rattus norvegicus [15]) |
| --- | --- | --- | --- | --- | --- | --- | --- | --- | --- | --- | --- | --- | --- | --- | --- |
| CC(C)C[C@H](CN)CC(=O)O [PREGABALIN] | Toxic | Toxic | Toxic | Toxic | Toxic | Active | Active | – | – | – | – | – | – | – | – |
| C[Si](C)(C)C[C@H](CN)CC(=O)O | – | Non-toxic | Non-toxic | Non-toxic | Non-toxic | – | inactive | Non-toxic | Non-toxic | Non-toxic | Non-toxic | Active | – | – | – |
| C[Si](C)(C)C[C@@H](CN)CC(=O)O | – | Non-toxic | Non-toxic | Non-toxic | Non-toxic | – | – | Non-toxic | Non-toxic | Non-toxic | Non-toxic | – | inactive | Active | – |
| C[Si](C)(C)CC(CN)CC(=O)O (racemic) | – | – | – | – | – | – | – | – | – | – | – | – | – | – | Active |
